Source: ChEMBL document CHEMBL3885861, “Open TG-GATES”

Organism: Rattus norvegicus
Experiment: Open TG-GATES - Regimen: Single
Type: toxicity, organism-based, Sprague-Dawley
Set-up: regimen Single, gender Male, age 6 weeks
Conditions: in vivo, po, 0 mg/kg, route gavage, dose level Control; for APTT / Bas / Eos / Fbg / Hb / Ht / Lym / MCH / MCHC / MCV / Mono / Neu / PT / Plat / RBC / Ret / WBC: tissue Blood; for KIDNEY_L / KIDNEY_R / KIDNEY_TOTAL: tissue Kidney; for LIVER: tissue Liver; for A/G / ALP / ALT / AST / BUN / CRE / Ca / Cl / DBIL / GLC / IP / K / LDH / Na / PL / RALB / TBIL / TC / TG / TP / gamma-GTP: tissue Plasma

CCC1(c2ccccc2)C(=O)NC(=O)NC1=O [PHENOBARBITAL]
TERMINAL_BW (3 h): 221.7 g | APTT (3 h): 19.3 s | Bas (3 h): 0.4% | Eos (3 h): 1% | Fbg (3 h): 219.2 mg/dL | Hb (3 h): 13.6 g/dL | Ht (3 h): 37.5% | Lym (3 h): 72.8% | MCH (3 h): 21.7 pg | MCHC (3 h): 36.1% | MCV (3 h): 60.2 fL | Mono (3 h): 3% | Neu (3 h): 21.6% | PT (3 h): 11.9 s | Plat (3 h): 113.7 x10_4/uL | RBC (3 h): 623.8 x10_4/ul | Ret (3 h): 7.9% | WBC (3 h): 110.8 x10_2/uL | KIDNEY_L (3 h): 1.1 g | KIDNEY_R (3 h): 1 g | KIDNEY_TOTAL (3 h): 2.1 g | LIVER (3 h): 10.2 g | A/G (3 h): 1.6 | ALP (3 h): 939.8 IU/L | ALT (3 h): 38.4 IU/L | AST (3 h): 73.4 IU/L | BUN (3 h): 10.8 mg/dL | CRE (3 h): 0.4 mg/dL | Ca (3 h): 10.6 mg/dL | Cl (3 h): 103.4 meq/L | DBIL (3 h): 0.068 mg/dL | GLC (3 h): 203.2 mg/dL | IP (3 h): 9.4 mg/dL | K (3 h): 4.2 meq/L | LDH (3 h): 162.6 IU/L | Na (3 h): 141.6 meq/L | PL (3 h): 140.4 mg/dL | RALB (3 h): 3.3 g/dL | TBIL (3 h): 0.1 mg/dL | TC (3 h): 78 mg/dL | TG (3 h): 55 mg/dL | TP (3 h): 5.3 g/dL | gamma-GTP (3 h): 0.8 IU/L | TERMINAL_BW (6 h): 218.3 g | APTT (6 h): 19 s | Bas (6 h): 0.2% | Eos (6 h): 1% | Fbg (6 h): 227.8 mg/dL | Hb (6 h): 14 g/dL | Ht (6 h): 39.1% | Lym (6 h): 73.6% | MCH (6 h): 21.4 pg | MCHC (6 h): 35.9% | MCV (6 h): 59.5 fL | Mono (6 h): 3.2% | Neu (6 h): 21.4% | PT (6 h): 12.2 s | Plat (6 h): 119.4 x10_4/uL | RBC (6 h): 656.8 x10_4/ul | Ret (6 h): 8.1% | WBC (6 h): 105 x10_2/uL | KIDNEY_L (6 h): 1 g | KIDNEY_R (6 h): 1 g | KIDNEY_TOTAL (6 h): 2 g | LIVER (6 h): 9.6 g | A/G (6 h): 1.6 | ALP (6 h): 907.4 IU/L | ALT (6 h): 34.4 IU/L | AST (6 h): 70.2 IU/L | BUN (6 h): 9.8 mg/dL | CRE (6 h): 0.4 mg/dL | Ca (6 h): 10.8 mg/dL | Cl (6 h): 103.8 meq/L | DBIL (6 h): 0.074 mg/dL | GLC (6 h): 193.2 mg/dL | IP (6 h): 9.3 mg/dL | K (6 h): 4 meq/L | LDH (6 h): 167.6 IU/L | Na (6 h): 142 meq/L | PL (6 h): 135.6 mg/dL | RALB (6 h): 3.3 g/dL | TBIL (6 h): 0.1 mg/dL | TC (6 h): 73.8 mg/dL | TG (6 h): 65.4 mg/dL | TP (6 h): 5.4 g/dL | gamma-GTP (6 h): 1 IU/L | TERMINAL_BW (9 h): 217.1 g | APTT (9 h): 19 s | Bas (9 h): 0.4% | Eos (9 h): 1.2% | Fbg (9 h): 223.8 mg/dL | Hb (9 h): 13.6 g/dL | Ht (9 h): 37.9% | Lym (9 h): 77% | MCH (9 h): 21.5 pg | MCHC (9 h): 36% | MCV (9 h): 59.8 fL | Mono (9 h): 2.8% | Neu (9 h): 18% | PT (9 h): 12.3 s | Plat (9 h): 127.9 x10_4/uL | RBC (9 h): 634.2 x10_4/ul | Ret (9 h): 7.7% | WBC (9 h): 93.6 x10_2/uL | KIDNEY_L (9 h): 1 g | KIDNEY_R (9 h): 1 g | KIDNEY_TOTAL (9 h): 2 g | LIVER (9 h): 9 g | A/G (9 h): 1.6 | ALP (9 h): 763.4 IU/L | ALT (9 h): 31.4 IU/L | AST (9 h): 63.6 IU/L | BUN (9 h): 9.4 mg/dL | CRE (9 h): 0.3 mg/dL | Ca (9 h): 10.6 mg/dL | Cl (9 h): 103.8 meq/L | DBIL (9 h): 0.062 mg/dL | GLC (9 h): 202 mg/dL | IP (9 h): 10.4 mg/dL | K (9 h): 3.9 meq/L | LDH (9 h): 122.2 IU/L | Na (9 h): 142.2 meq/L | PL (9 h): 129.8 mg/dL | RALB (9 h): 3.4 g/dL | TBIL (9 h): 0.1 mg/dL | TC (9 h): 70.6 mg/dL | TG (9 h): 35.4 mg/dL | TP (9 h): 5.4 g/dL | gamma-GTP (9 h): 1.2 IU/L | TERMINAL_BW (24 h): 234.1 g | APTT (24 h): 20.3 s | Bas (24 h): 0.6% | Eos (24 h): 1% | Fbg (24 h): 221.2 mg/dL | Hb (24 h): 13.4 g/dL | Ht (24 h): 37.5% | Lym (24 h): 77.6% | MCH (24 h): 21 pg | MCHC (24 h): 35.7% | MCV (24 h): 58.9 fL | Mono (24 h): 2.4% | Neu (24 h): 18% | PT (24 h): 11.7 s | Plat (24 h): 132.6 x10_4/uL | RBC (24 h): 637.2 x10_4/ul | Ret (24 h): 7.4% | WBC (24 h): 98.6 x10_2/uL | KIDNEY_L (24 h): 1.1 g | KIDNEY_R (24 h): 1.1 g | KIDNEY_TOTAL (24 h): 2.2 g | LIVER (24 h): 11.3 g | A/G (24 h): 1.6 | ALP (24 h): 911.2 IU/L | ALT (24 h): 35.8 IU/L | AST (24 h): 70 IU/L | BUN (24 h): 16.2 mg/dL | CRE (24 h): 0.4 mg/dL | Ca (24 h): 10.8 mg/dL | Cl (24 h): 103.2 meq/L | DBIL (24 h): 0.062 mg/dL | GLC (24 h): 188.4 mg/dL | IP (24 h): 7.6 mg/dL | K (24 h): 4 meq/L | LDH (24 h): 171.8 IU/L | Na (24 h): 142 meq/L | PL (24 h): 143 mg/dL | RALB (24 h): 3.4 g/dL | TBIL (24 h): 0.1 mg/dL | TC (24 h): 72.2 mg/dL | TG (24 h): 77.4 mg/dL | TP (24 h): 5.6 g/dL | gamma-GTP (24 h): 1.4 IU/L
